According to patent US9593108B2, “Compounds and methods for antiviral treatment” (PTC Therapeutics, Inc., priority 2009, dated 2017):

Assays:
[1] = tested on: HCV replicon RNA (GenBank Accession No. AJ242654); assay: HCV Replicon Assay (replicon RNA reduction and/or Fluc reporter signal); format: cell-based, Hepatitis C virus; conditions: Hepatitis C virus, 72 h, replicon-containing cells cultured with test compound for up to 3 days
How it was run: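 Bicistronic replicon-containing cells cultured with compound for up to 3 days, with interferon as positive control. Inhibition quantified by replicon RNA reduction and/or Fluc reporter signal; IC50 values generally derived from replicon RNA reduction.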

Compound | IC50 [1] [nM] | melting point [°C]
NC(=O)c1c(-c2ccc(S(=O)(=O)NC3(C(F)(F)F)CC3)cc2)n(C2CCC2)c2ncc(C3CC3)cc12 [Cpd 373, 1-cyclobutyl-5-cyclopropyl-2-(4-{[1-(trifluoromethyl)cyclopropyl]sulfamoyl}phenyl)-1H-pyrrolo[2,3-b]pyridine-3-carboxamide] | < 500 | 224 to 229
CC(C)(C)NS(=O)(=O)c1ccc(-c2c(C(N)=O)c3cc(C4CC4)cnc3n2C2CCC2)nc1 [Cpd 376, 2-[5-(tert-butylsulfamoyl)pyridin-2-yl]-1-cyclobutyl-5-cyclopropyl-1H-pyrrolo[2,3-b]pyridine-3-carboxamide] | < 500 | 245 to 252
CCc1cnc2c(c1)c(C(N)=O)c(-c1ccc(S(=O)(=O)N[C@@H](C)C(F)(F)F)cn1)n2C1CCC1 [Cpd 377, 1-cyclobutyl-5-ethyl-2-(5-{[(2S)-1,1,1-trifluoropropan-2-yl]sulfamoyl}pyridin-2-yl)-1H-pyrrolo[2,3-b]pyridine-3-carboxamide] | < 500 | 236 to 240
CCc1cnc2c(c1)c(C(N)=O)c(-c1ccc(S(=O)(=O)NC(C)(C)C(F)(F)F)cc1)n2C1CCC1 [Cpd 378, 1-cyclobutyl-5-ethyl-2-{4-[(1,1,1-trifluoro-2-methylpropan-2-yl)sulfamoyl]phenyl}-1H-pyrrolo[2,3-b]pyridine-3-carboxamide] | < 500 | 185 to 193
CCc1cnc2c(c1)c(C(N)=O)c(-c1ccc(S(=O)(=O)NC3(C(F)(F)F)CC3)cc1)n2C1CCC1 [Cpd 379, 1-cyclobutyl-5-ethyl-2-(4-{[1-(trifluoromethyl)cyclopropyl]sulfamoyl}phenyl)-1H-pyrrolo[2,3-b]pyridine-3-carboxamide] | < 500 | 173 to 179
Cc1cnc2c(c1)c(C#N)c(-c1ccc(S(=O)(=O)N[C@@H](C)C(F)(F)F)cn1)n2-c1cccnn1 [Cpd 383, 6-[3-cyano-5-methyl-1-(pyridazin-3-yl)-1H-pyrrolo[2,3-b]pyridin-2-yl]-N-[(2S)-1,1,1-trifluoropropan-2-yl]pyridine-3-sulfonamide] | < 500 | 150 to 153
Cc1cnc2c(c1)c(C#N)c(-c1ccc(S(=O)(=O)N[C@@H](C)C(F)(F)F)cn1)n2-c1cncnc1 [Cpd 384, 6-[3-cyano-5-methyl-1-(pyrimidin-5-yl)-1H-pyrrolo[2,3-b]pyridin-2-yl]-N-[(2S)-1,1,1-trifluoropropan-2-yl]pyridine-3-sulfonamide] | < 500 | 231 to 233
CC(C)(C)S(=O)(=O)Nc1ccc(-c2c(C#N)c3cc(Cl)cnc3n2C2CCC2)cc1 [Cpd 385, N-[4-(5-chloro-3-cyano-1-cyclobutyl-1H-pyrrolo[2,3-b]pyridin-2-yl)phenyl]-2-methylpropane-2-sulfonamide] | < 500 | 240 to 241
CSc1cnc2c(c1)c(C(N)=O)c(-c1ccc(NS(=O)(=O)C(C)(C)C)cc1)n2C1CCC1 [Cpd 387, 2-{4-[(tert-butylsulfonyl)amino]phenyl}-1-cyclobutyl-5-(methylsulfanyl)-1H-pyrrolo[2,3-b]pyridine-3-carboxamide] | < 500 | 240 to 241
CC(C)(NS(=O)(=O)c1ccc(-c2c(C(N)=O)c3cccnc3n2C2CCC2)cc1)C(F)(F)F [Cpd 388, 1-cyclobutyl-2-{4-[(1,1,1-trifluoro-2-methylpropan-2-yl)sulfamoyl]phenyl}-1H-pyrrolo[2,3-b]pyridine-3-carboxamide] | 500 to 2000 | 240 to 242
CSc1cnc2c(c1)c(C(N)=O)c(-c1ccc(S(=O)(=O)NC(C)(C)C(F)(F)F)cc1)n2C1CCC1 [Cpd 391, 1-cyclobutyl-5-(methylsulfanyl)-2-{4-[(1,1,1-trifluoro-2-methylpropan-2-yl)sulfamoyl]phenyl}-1H-pyrrolo[2,3-b]pyridine-3-carboxamide] | < 500 | 204 to 205
CSc1cnc2c(c1)c(C(N)=O)c(-c1ccc(S(=O)(=O)NC(C)(C)C)cc1)n2C1CCC1 [Cpd 392, 2-[4-(tert-butylsulfamoyl)phenyl]-1-cyclobutyl-5-(methylsulfanyl)-1H-pyrrolo[2,3-b]pyridine-3-carboxamide] | < 500 | 224 to 226
CC(C)(C)NS(=O)(=O)c1ccc(-c2c(C(N)=O)c3cc(Cl)cnc3n2C2CCC2)cc1 [Cpd 393, 2-[4-(tert-butylsulfamoyl)phenyl]-5-chloro-1-cyclobutyl-1H-pyrrolo[2,3-b]pyridine-3-carboxamide] | < 500 | 269 to 270
CC(C)(NS(=O)(=O)c1ccc(-c2c(C#N)c3cc(C(F)(F)F)cnc3n2C2CCC2)nc1)C(F)(F)F [Cpd 395, 6-[3-cyano-1-cyclobutyl-5-(trifluoromethyl)-1H-pyrrolo[2,3-b]pyridin-2-yl]-N-(1,1,1-trifluoro-2-methylpropan-2-yl)pyridine-3-sulfonamide] | < 500 | 174 to 176
N#Cc1c(-c2ccc(S(=O)(=O)NC3(C(F)(F)F)CC3)cn2)n(C2CCC2)c2ncc(C(F)(F)F)cc12 [Cpd 396, 6-[3-cyano-1-cyclobutyl-5-(trifluoromethyl)-1H-pyrrolo[2,3-b]pyridin-2-yl]-N-[1-(trifluoromethyl)cyclopropyl]pyridine-3-sulfonamide] | < 500 | 156 to 158
CC1(NS(=O)(=O)c2ccc(-c3c(C#N)c4cc(C(F)(F)F)cnc4n3C3CCC3)nc2)CC1 [Cpd 398, 6-[3-cyano-1-cyclobutyl-5-(trifluoromethyl)-1H-pyrrolo[2,3-b]pyridin-2-yl]-N-(1-methylcyclopropyl)pyridine-3-sulfonamide] | < 500 | 172 to 175
CC(C)(NS(=O)(=O)c1ccc(-c2c(C(N)=O)c3cc(C(F)(F)F)cnc3n2C2CCC2)nc1)C(F)(F)F [Cpd 399, 1-cyclobutyl-5-(trifluoromethyl)-2-{5-[(1,1,1-trifluoro-2-methylpropan-2-yl)sulfamoyl]pyridin-2-yl}-1H-pyrrolo[2,3-b]pyridine-3-carboxamide] | < 500 | 217 to 219
NC(=O)c1c(-c2ccc(S(=O)(=O)NC3(C(F)(F)F)CC3)cn2)n(C2CCC2)c2ncc(C(F)(F)F)cc12 [Cpd 400, 1-cyclobutyl-5-(trifluoromethyl)-2-(5-{[1-(trifluoromethyl)cyclopropyl]sulfamoyl}pyridin-2-yl)-1H-pyrrolo[2,3-b]pyridine-3-carboxamide] | < 500 | 230 to 235
CC(C)(NS(=O)(=O)c1ccc(-c2c(C(N)=O)c3cc(C(F)(F)F)cnc3n2C2CCC2)cc1)C(F)(F)F [Cpd 401, 1-cyclobutyl-5-(trifluoromethyl)-2-{4-[(1,1,1-trifluoro-2-methylpropan-2-yl)sulfamoyl]phenyl}-1H-pyrrolo[2,3-b]pyridine-3-carboxamide] | < 500 | 239 to 241
NC(=O)c1c(-c2ccc(S(=O)(=O)NC3(C(F)(F)F)CC3)cc2)n(C2CCC2)c2ncc(C(F)(F)F)cc12 [Cpd 402, 1-cyclobutyl-5-(trifluoromethyl)-2-(4-{[1-(trifluoromethyl)cyclopropyl]sulfamoyl}phenyl)-1H-pyrrolo[2,3-b]pyridine-3-carboxamide] | < 500 | 261 to 263
